The test system of the experiment is cholesterol in blood. The experiment in a line: Reduction of blood cholesterol in rats fed a 1% cholesterol / 0.25% sodium cholate diet. The settings on record: 3 days, control (cholesterol-administered) group = 0, normal group = 100, * 5%, ** 1% significance. The format is in vivo, male rats. As to the method: A completely synthetic diet containing 1% of cholesterol, 0.25% of sodium cholate and 0.0003%, 0.003%, and 0.03% of the test compound is given to a group of 6 male rats having a body weight of about 50 g consecutively for 3 days, and the rats are fasted overnight. Then, the rats are decapitated and blood is collected to determine the cholesterol concentration in blood. The concentration of cholesterol in blood is measured with Technicon Autoanalyzer(Technicon Laboratory: Method File N-24a) Obtained results are shown in Table 1.
Each value shown in the Table is a relative value determined based on the supposition that the value of the control group (the cholesterol-administered group) is 0 and the value of the normal group (the non-cholesterol-administered group) is 100.

For the compound `Cc1cccc(C)c1NC(=O)C1(C)CCCC2(C)C3=C(CCC12)CC(C(C)C)CC3` (centres unmarked) [N-(2,6-dimethylphenyl)-Δ^8-dihydroabietamide], the “% Inhibition (cholesterol in blood)” value was 33% (Dose in Diet 0.0003%), 76% (Dose in Diet 0.003%) and 102% (Dose in Diet 0.03%).

`CC(C)C1CCC2=C(CCC3C(C)(C(=O)NCc4ccc(Cl)cc4)CCCC23C)C1` (centres unmarked) [N-(4-chlorobenzyl)-Δ^8-dihydroabietamide]: the “% Inhibition (cholesterol in blood)” value reads like this: (Dose in Diet 0.003%) 9%; (Dose in Diet 0.03%) 30%.

Regarding N-(m-bromophenyl)-dihydroabietamide, the “% Inhibition (cholesterol in blood)” value is, setting by setting: (Dose in Diet 0.0003%) 7%; (Dose in Diet 0.003%) 23%; (Dose in Diet 0.03%) 60%.

The values above are taken from patent US4009206A, “N-(substituted phenyl and benzyl)abietamides” (priority 1974, dated 1977).
